In patent US5498695A, “Paranitroaniline peptides” (Pfizer Inc., priority 1994, dated 1996):
Where a SMILES comes first, the peptide text is derived from it. Where no end group is shown, it is not given here. The star is where a group is joined. pNA = O=[N+]([O-])c1ccc(N*)cc1; Cbz = O=C(OCc1ccccc1)*; Boc = CC(C)(C)OC(=O)*

Columns and labels:
[1] = biological target: T1, interleukin 1β converting enzyme (ICE) (Homo sapiens, UniProt P29466); test: Spectrophotometric hydrolysis of pNA substrates by immobilized ICE (release of pNA at 405 nM); type: biochemical; conditions: 25° C.; for Increase In Absorbence Rates (mOD/min), first value: first of two rate values printed; for Increase In Absorbence Rates (mOD/min), first value / Increase In Absorbence Rates (mOD/min), second value: pH 7, 405 nM, condition that separates the two values not given; for Vmax (Rates) mOD/min: pNA substrate 0.01 to 1.5 mM, pH 7; for Increase In Absorbence Rates (mOD/min), second value: second of two rate values
T1 construct: ICE activity was purified from THP-1 cell lysates by three chromatographic steps; endogenous in cells; host or cells: THP-1 (ATCC-TIB 202) human monocyte cell line; Lysate was purified over G25, Q-Sepharose and MonoQ, then captured on protein A agarose beads carrying anti-ICE antibody
T1 sequence (P29466 120-297 limits assumed): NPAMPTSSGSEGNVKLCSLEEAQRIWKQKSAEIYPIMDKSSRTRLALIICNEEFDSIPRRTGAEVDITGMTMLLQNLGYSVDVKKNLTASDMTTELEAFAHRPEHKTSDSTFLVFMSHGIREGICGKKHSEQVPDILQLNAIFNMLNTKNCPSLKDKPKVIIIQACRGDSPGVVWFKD
T1 sequence (P29466 317-404 limits assumed): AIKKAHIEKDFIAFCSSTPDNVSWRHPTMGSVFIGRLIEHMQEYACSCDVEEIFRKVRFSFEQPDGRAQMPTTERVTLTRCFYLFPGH
Method: (§1) Other procedures for purification and assaying ICE are disclosed in Black et al., FEBS Letters, 247, 386-390 (1989), and Thornberry et al., Nature, 356, 768-774 (1992). Cell Culture And Lysates.
(§2) Human monocyte cell line, THP-1 (ATCC-TIB 202) was grown in RPMI media 1640 (Gibco BRL Gaithersburg, Md. 20877) with 10% fetal bovine serum, harvested by centrifugation, washed twice in Dulbecco's PBS […] without Ca^++, and resuspended in 10 mM Tris-HCl pH 8 buffer containing 5 mM DTT (dithiothreitol), 1 mM EDTA (ethylene diamine tetraacetic acid), 1 mM PMSF (phenylmethyl sulfonylfluoride), 1 μg/ml pepstatin, and 1 μg/ml leupeptin at 1-3×10^8 cells per ml. Cells were frozen at -70° C. until use and then lysed by thawing. Lysates were cleared by centrifugation at 20,000× g for 1 hour followed by 120,000×g for 1 hour.
(§3) ICE activity was purified from THP-1 cell lysates by three chromatographic steps: (A) Thp-1 cell lysate (1.5L) was desalted by G25 column chromatography (Pharmacia LKB Biotechnology) (B) The protein fraction was then subjected to ion-exchange chromatography on Q-Sepharose Fast Flow (Pharmacia LKB Biotechnology) in buffer A (20 mM Tris pH 7.8 containing 5 mM EDTA, 1 mM PMSF, 1 μg/ml pepstatin, and 1 μg/ml leupeptin). ICE activity was eluted with a gradient of NaCl in buffer A. (C) The active fractions from B were desalted, concentrated and subjected to MonoQ (trademark) (Pharmacia LKB Biotechnology) column chromatography. ICE activity was then eluted in a NaCl gradient. Active ICE fractions from C were pooled and used to bind immunoaffinity beads containing covalently linked antibodies raised against the first […] N-terminal residues of ICE (NH2 -Asp-Pro-Ala-Met-Pro-Thr-Ser-Ser-Val-Lys-Leu-Cys(SEQ ID NO:2)-CONH2).
Immobilization of ICE to immunoaffinity beads was done following standard protocols. Briefly, IgG fractions were covalently linked to protein A beads as described by the manufacturers (Antibody Orientation Kit Protein A Agarose supplied by Affinica (trademark) (Product manufactured by Schleicher and Schuell)). Protein A beads were pelleted by centrifugation and washed with 5 times their volume with Affinica (trademark) supplied "binding buffer". IgG, appropriately diluted in "binding buffer," was then bound to the beads. The beads were then washed and the bound IgG was covalently linked with dimethyl suberimidate. After the reaction was stopped with the "quenching buffer" supplied by Affinica (trademark), the immunoaffinity beads were washed and stored in PBS buffer containing 0.02% NAN3. To bind the immunoaffinity beads with MonoQ purified ICE preparations, the beads were washed in 10 mM Tris HCL buffer pH 7.8 containing 5 mM DDT, 1 mM EDTA-NA, 1 ug/ml peptstatin, 1 ug/ml leupeptin and 10% glycerol ("washing buffer"). After the wash, the beads were mixed with ICE in the presence of 10% DMSO final concentration. The suspension was rotated slowly for 1 hour at room temperature. Subsequently, the beads were thoroughly washed with the "washing buffer" before they were used and resuspended in an equal volume of this buffer in the enzymatic assay.
The enzymatic reaction was carried out at 25° C. in 96 microtiter wells (100 μl final volume) with active enzyme immobilized to anti-ICE antibodies covalently linked to protein A beads as described above. The incubation mixtures for the enzymatic assays contained 0.01 to 1.5 mM of the pNA substrates and was made up in 8.35 mM MES, 4.17 mM Tris, 4.17 mM acetic acid, […] DMSO, 0.8 mM EDTA and 4.17 mM DTT (final concentrations)adjusted to a final pH of 7.
The enzymatic reaction was monitored spectrophotometrically at […]. The increase in absorbance at this wave length resulted from the release of pNA chromophore after hydrolysis by ICE of the peptidic-pNA substrate. The release of the chormophore was linear with reaction time and the rates observed were proportional to ICE and substrate concentration. […]

[2] = biological target: T1, interleukin 1β converting enzyme (ICE); test: Inhibition of ICE hydrolysis of CBZ-Val-Ala-Asp-pNA; type: biochemical; conditions: for Ki: substrate CBZ-Val-Ala-Asp-pNA
Method: as §1, §2, §3
Immobilization of ICE to immunoaffinity beads was done following standard protocols. […]
The enzymatic reaction was monitored spectrophotometrically at […]. The increase in absorbance at this wave length resulted from the release of pNA chromophore after hydrolysis by ICE of the peptidic-pNA substrate. […]

| Compound | Increase In Absorbence Rates (mOD/min), first value [1] [mOD/min] | Vmax (Rates) mOD/min [1] [mOD/min] | Increase In Absorbence Rates (mOD/min), second value [1] [mOD/min] | type of inhibition ([2]; hydrolysis of CBZ-Val-Ala-Asp-pNA, affecting Km but not Vmax) | Ki [2] [µM] |
| --- | --- | --- | --- | --- | --- |
| CC(C)[C@H](NC(=O)OC(C)(C)C)C(=O)N[C@@H](C)C(=O)N[C@@H](CC(=O)O)C(=O)Nc1ccc([N+](=O)[O-])cc1 [Example 4, t-BOCValAlaAsp-p-nitroanilide] (Boc-Val-Ala-Asp-pNA) | 0.17 | 0.24 | 0.10 | – | – |
| Ac-YVHDA-NH2 [p48, Ac-Tyr-Val-His-Asp-Ala(SEQ ID NO:4)-NH2] | – | – | – | competitive inhibitors | 1600 |
| CC(C)[C@H](NC(=O)OCc1ccccc1)C(=O)N[C@@H](C)C(=O)N[C@@H](CC(=O)O)C(=O)Nc1ccc([N+](=O)[O-])cc1 [Example 6, CBZValAlaAsp-p-nitroanilide] (Cbz-Val-Ala-Asp-pNA) | 0.18 | 0.21 | 0.16 | – | – |
| CC(=O)N[C@H](C(=O)N[C@@H](C)C(=O)N[C@@H](CC(=O)O)C(=O)Nc1ccc([N+](=O)[O-])cc1)C(C)C [Example 5, AcValAlaAsp-p-nitroanilide] (Ac-Val-Ala-Asp-pNA) | 0.15 | 0.25 | 0.08 | – | – |
| H-NEAYVHDAPVRSLN [p70, H-Asn-Glu-Ala-Tyr-Val-His-Asp-Ala-Pro-Val-Arg-Ser-Leu-Asn] | – | – | – | – | 460 |
| CC(=O)N[C@@H](Cc1ccc(O)cc1)C(=O)N[C@H](C(=O)N[C@@H](C)C(=O)N[C@@H](CC(=O)O)C(=O)Nc1ccc([N+](=O)[O-])cc1)C(C)C [Example 1, Ac-TyrValAlaAsp (SEQ ID NO:1)-p-nitroanilide] | 0.21 | 0.27 | 0.17 | – | – |
